Results from patent publication US10584146B2, “Heme peptide materials for anti-inflammatory regenerative nanobiomedicine” (UCHICAGO ARGONNE, LLC, priority 2016, dated 2020).
“Also recorded” adds a separate entry of the source. The star is where a group is joined. Palmitoyl = CCCCCCCCCCCCCCCC(=O)*

How the values were obtained:
[1] = Heme titration, stoichiometry and binding constant analysis (UV/visible)
Experimental: FIGS. 14A-14P depict stoichiometry and binding constant analysis of peptide titrations (0-1000 μM XX in 50 μM titrants) into heme solutions (50 μM) in Hepes buffer (right) or 10 mM NH4OH (left). UV/visible spectroscopy and plots of [Peptide]/[Heme] vs. absorption (λSoret). The solid lines represent the binding constant analysis and were obtained in Origin v9.1 by applying equation 1 (FIG. 15). The following values were fixed: M=5×10^−5 M, 1=0.1 cm. All other values were permitted to float for the first round of analysis. Once n was determined, a common integer was applied to each data set within the conditions employed, e.g. n=3 for HEPES and n=6 for 10 mM NH4OH. The vertical line at x=10 marks the samples that were analyzed further by UV/vis and EPR.
FIG. 15 is the equation employed for stoichiometry and binding constant analysis; the follow variables are used: Ao, initial absorption; ϵB, extinction of bound heme; ϵs, extinction coefficient contribution from scattering; x, ratio of peptide to heme; n, set stoichiometry of peptide to heme; Kd, dissociation (binding) constant M, molar concentration of heme; l, cuvette pathlength.
Sample Preparation. Each peptide (3-4 mg) was dissolved in nanopure water (Millipore A10) to obtain a 1 wt % solution, c16-AAL3K3-CO2H (SEQ ID NO: 9) (1 wt %, 8.9 mM), c16-AHL3K3-CO2H (SEQ ID NO: 3) (1 wt %, 8.4 mM), c16-HHL3K3-CO2H (SEQ ID NO: 4) (1 wt %, 7.9 mM) and c16-MHL3K3-CO2H (SEQ ID NO: 5) (1 wt %, 8.0 mM). Hemin (Porcine, Sigma-Aldrich) was dissolved in DMSO (Sigma Aldrich) to achieve a 10 mM stock solution. Note: He-min/DMSO stock solutions were always made to ensure that the final DMSO concentration in the sam-ple was less than 1% (v/v). Typically, 38 μL of a 1 wt % stock solution was dissolved in 260 μL of ei-ther HEPES (50 mM HEPES, 100 mM NaCl pH 7.0) or 10 mM NH4OH, pH 10.5 to yield a 1 mM sample. […] Titration experiments analyzed samples that contained 50 μM Heme in either Hepes buffer or 10 mM NH4OH. […]

[2] = Spectroelectrochemistry, midpoint potential; format: physicochemical
Experimental: Electrochemistry. The samples were placed in a spectroecltrochemical cell (1 mm quartz) equipped with a platinum mesh working electrode, platinum wire auxiliary electrode, and a Ag/AgCl reference electrode (Basi, Inc.). […] Each applied voltage setting was allowed to equilibrate for a minimum of 20 minutes prior to UV/visible spectral acquisition (Perkin Elmer, Lambda 950, UV/vis/NIR spectrophotometer). Midpoint potential analysis was achieved by fitting a standard Boltzmann curve to the obtained data (OriginPro 9.1).

[3] = Peroxidase activity assay (TMB oxidation with H2O2); format: biochemical; conditions: for peroxidase activity (oxidation of TMB): assemblies prepared in pH 7 HEPES (micelles), assay at pH 7, peptide 10 μM, heme 1 μM; for peroxidase activity over extended times: TMB ~300 μM, H2O2 ~300 μM, Peptide 10 μM, Heme 1 μM, HEPES pH 7
Experimental: Peroxidase Activity Assay. Peroxidase activity was monitored using a Varian Cary 50 spectrophotometer and the kinetics software package. 652 nm was the chosen wavelength based on its characterization in the literature (extinction coefficient: 39,000 M−1 cm-1). In a solution of HEPES buffer, pH 7 (50 mM HEPES 100 mM NaCl), a commercially available cocktail of 3,3′,5,5′-Tetramethylbenzidine (TMB) and H2O2 (both ˜3 mM, purchased from Sigma-Aldrich) was diluted 1:10. This was monitored for 1 minute to detect any changes in the background then protein was added (prepared as above at 500 μM peptide and 50 μM heme) to a final concentration of 10 μM (1 μM Heme). The reaction was allowed to run for 15 minutes to assure completion. In the case of Michaelis-Menten analyses two stock solutions of TMB (10 mg/mL, 41.6 mM in DMSO) and peroxide (52.8 mM diluted in H2O, H2O2 stock concentration standardized by the method of Klassen et. al.) (57) were made so the concentrations could be varied de-pending on the experiment. When varying peroxide concentration TMB was at a concentration of 300 μM. Michaelis-Menten curves were fit using Origin 9.1 software to the equation (v0=kCat[E]0[S]0/(KM+[S]0)). Catalytic efficiency values (kCat/KM) were determined by fitting the linear portion of those curves to the equation (v0=(kCat/KM)[E]0[S]0). Total amount of oxidized TMB was calcu-lated by integrating the absorbance at 652 nm (done with Origin 9.1 software), and dividing that value by the extinction coefficient.
Many natural and synthetic heme proteins display peroxidase activity, a natural reaction that catalyzes the oxidation of high potential substrates using hydrogen peroxide (H2O2). Here, we employed heme-peroxidase catalysis as a benchmark reaction to investigate how supramolecular morphology in PA-Heme assemblies can control catalytic reactivity. (53) We have chosen the established protocol where H2O2 activated by the XXHeme assemblies reacts with the colorless molecule 3,3′,5,5′-tetramethylbenzidine (TMB) to yield the oxidized blue diimine product and water. (54) All of these assays were carried out in pH 7 HEPES buffer. Peptide assemblies were prepared in either pH 7 HEPES or 10.5 NH4OH and then diluted 50 fold into the reaction mixture to maintain standard reaction conditions. […] The rates of these peptides are consistent with the Michaelis-Menten enzyme kinetics model (FIGS. 19C, 19D, and 21). […] Applicants show a clear and significant dependence of peroxidase activity dependent on supramolecular morphology. […] The micelle structures offer a more dynamic assembly that allows substrate to interact with the engineered heme active site.

heme binding affinity (Kd), in words ([1]; micelles) | peroxidase activity (oxidation of TMB) [3] | heme binding affinity (Kd), in words ([1]; fibers, compared with micelles) | peroxidase activity over extended times [3] | kCat, in words ([3]; micelles, pH 7) | Substance | midpoint potential (EM) vs. SHE ([2]; fibers, 10 mM NH4OH) [mV] | midpoint potential (EM) vs. SHE ([2]; micelles, HEPES) [mV]
– | varying degrees of peroxidase activity | decrease in heme binding affinity | most initial activity | higher kCat, than HHHeme | c16-MHL3K3-CO2H (Palmitoyl-MHLLLKKK-OH; also: heme) [MHHeme, XXHeme denotes the holo state] | −442 | −312
– | not reactive | – | does not appear to have any activity | – | c16-AAL3K3-CO2H (Palmitoyl-AALLLKKK-OH; also: heme) [AAHeme, control peptide amphiphile without heme coordination site; XXHeme denotes the holo state (coordinated heme)] | – | –
– | varying degrees of peroxidase activity | binding affinity actually increases | most initial activity | – | c16-AHL3K3-CO2H (Palmitoyl-AHLLLKKK-OH; also: heme) [AHHeme, XXHeme denotes the holo state] | −655 | −315

Substance | heme binding affinity (Kd), in words ([1]; micelles) | peroxidase activity (oxidation of TMB) [3] | heme binding affinity (Kd), in words ([1]; fibers, compared with micelles) | peroxidase activity over extended times [3] | kCat, in words ([3]; micelles, pH 7) | midpoint potential (EM) vs. SHE ([2]; fibers, 10 mM NH4OH) [mV] | midpoint potential (EM) vs. SHE ([2]; micelles, HEPES) [mV]
c16-HHL3K3-CO2H (Palmitoyl-HHLLLKKK-OH; also: heme) [HHHeme, XXHeme denotes the holo state] | highest binding affinity | varying degrees of peroxidase activity; also recorded: low reactivity compared to the other peptides | – | – | – | −333 | −270
